Results reported in patent US20230323358A1, “COMPOSITION AND USE OF siRNAs AGAINST VEGFR2 AND TGF-BETA1 IN COMBINATION THERAPY FOR CANCER” (Sirnaomics, Inc., priority 2021, published 2023).
Read-outs that look alike come from different tables or passages of the source. Oligonucleotides are written 5' to 3', each unit as a sugar letter and its base; * is a phosphorothioate linkage, no mark a phosphodiester; rarer units and linkages stand in square brackets, end groups in braces. Plain capitals give the bases only. {P} = phosphorylation (indicated by P); d = 2'-deoxy (DNA); m = 2'-O-methyl; r = 2'-OH (RNA); f = 2'-fluoro

Tested on: VEGFR2
Test: EC50 of VEGFR2 siRNA candidates before and after modification, knockdown in cells
Format: cell-based, human
Conditions: for EC50: 24 h, 24well; for knockdown effect of the modified sequence compared with unmodified: PANC-1 and MDA-MB-231 cells
Protocol: MDA-MB-231 and U87 cells were seeded in 24-well cell plates (1 × 10^5/well), and then siRNAs (21mer or 25mer or negative control) were transfected with commercial transfection reagent (lipo2000), and the siRNA transfection concentration was 100 nM. Meanwhile, untreated cells were set as blank control. Total RNA was extracted from cells 24 h after transfection. Reverse transcription was performed using the kit to obtain cDNA according to the manufacturer’s instructions. Relative levels of target gene VEGFR2 mRNA expression were determined by real-time PCR, normalized to the housekeeping gene β-actin. Gene knockdown effectiveness was expressed as a percentage of the blank control. […] VEGFR2-21-h1#, VEGFR2-21-h2#, VEGFR2-21-h5#, VEGFR2-21-h7#, VEGFR2-21-hm17#, VEGFR2-21-hm18#, VEGFR2-25-h3#, and VEGFR2- 25-h4# were selected and modified as indicated in Table 3 (SEQ ID Nos. 109-124).
The EC50 of candidate sequences before and after modification in different cells (MDA-MB-231, U87-MG and PANC-1) were compared. MDA-MB-231, PANC-1 and U87-MG cells were seeded in 24-well cell plates (1 × 10^5/well), and siRNA candidates (modified or unmodified) were transfected with multiple concentration gradients in different cells. Use the same procedure as the primary screen. Finally, the data were plotted using the software GraphPad Prism8 and EC50 values were calculated.

[1] = MD-MB-231 cells, read-out: EC50 (nM, 24 h, 24well) Breast cancer MD-MB-231
[2] = PANC-1 cells, read-out: EC50 (nM, 24 h, 24well) Pancreatic cancer PANC-1
[3] = U87-MG cells, read-out: EC50 (nM, 24 h, 24well) Brain cancer U87-MG

“VEGFR2-21-hm17#mod: Modified (2′F, 2′OME, phosphorylation) siRNA targeting VEGFR2; sense SEQ ID 135, antisense SEQ ID 143 (sense mGmGmAmCmUmGfGfCfUmUmUmGmGmCmCmCmAmAmUdTdT; antisense {P}-mAfUmUmGmGmGmCmCmAmAmAmGmCfCmAmGmUmCmCdTdT)” gave an EC50 [1] of 0.32 nM, an EC50 [2] of 0.25 nM and an EC50 [3] of 312 nM.
Substance “VEGFR2-21-h7#: siRNA targeting VEGFR2 mRNA; sense SEQ ID 66, antisense SEQ ID 109 (sense GCUGACAUGUACGGUCUAUTT; antisense AUAGACCGUACAUGUCAGCTT; sugars from the 5' end r19 d2, backbone not given here)” has an EC50 [1] of 1.72 nM, an EC50 [2] of 3 nM and an EC50 [3] of 49.5 nM.
Substance “VEGFR2-21-h7#mod: Modified (2′F, 2′OME, phosphorylation) siRNA targeting VEGFR2; sense SEQ ID 138, antisense SEQ ID 146 (sense mGmCmUmGmAmCfAfUfGmUmAmCmGmGmUmCmUmAmUdTdT; antisense {P}-mAfUmAmGmAmCmCmGmUmAmCmAmUfGmUmCmAmGmCdTdT)” has an EC50 [1] of 51.4 nM, an EC50 [2] of 384 nM and an EC50 [3] of 170 nM.
For “VEGFR2-21-h2#mod: Modified (2′F, 2′OME, phosphorylation) siRNA targeting VEGFR2; sense SEQ ID 132, antisense SEQ ID 140 (sense mGmGmUmCmCmAfUfUfUmCmAmAmAmUmCmUmCmAmAdTdT; antisense {P}-mUfUmGmAmGmAmUmUmUmGmAmAmAfUmGmGmAmCmCdTdT)”, the EC50 [1] was 0.14 nM, the EC50 [2] was 0.08 nM and the EC50 [3] was 2.42 nM.
Work on “VEGFR2-21-h5#mod: Modified (2′F, 2′OME, phosphorylation) siRNA targeting VEGFR2; sense SEQ ID 137, antisense SEQ ID 145 (sense mGmCmAmUmCmAfGfCfAmUmAmAmGmAmAmAmCmUmUdTdT; antisense {P}-mAfAmGmUmUmUmCmUmUmAmUmGmCfUmGmAmUmGmCdTdT)” yielded an EC50 [1] of 0.01 nM, an EC50 [2] of 0.22 nM and an EC50 [3] of 10.4 nM.
With “VEGFR2-21-h1#mod: Modified (2′F, 2′OME, phosphorylation) siRNA targeting VEGFR2; sense SEQ ID 131, antisense SEQ ID 139 (sense mGmCmCmUmAmGfUfGfUmUmUmCmUmCmUmUmGmAmUdTdT; antisense {P}-mAfUmCmAmAmGmAmGmAmAmAmCmAfCmUmAmGmGmCdTdT)” the EC50 [1] was 0.23 nM, the EC50 [2] was 0.07 nM and the EC50 [3] was 0.99 nM.
In the case of “VEGFR2-21-h1#: siRNA targeting VEGFR2 mRNA; sense SEQ ID 60, antisense SEQ ID 103 (sense GCCUAGUGUUUCUCUUGAUTT; antisense AUCAAGAGAAACACUAGGCTT; sugars from the 5' end r19 d2, backbone not given here)”, the EC50 [1] is reported as 0.2 nM, the “knockdown effect of the modified sequence compared with unmodified” value (“knockdown effect … compared with unmodified” below) is reported as “better than that of unmodified” and the EC50 [2] is reported as 0.92 nM. For the same substance, the EC50 [3] was 1.25 nM.
“VEGFR2-25-h3#: siRNA targeting VEGFR2 mRNA; sense SEQ ID 43, antisense SEQ ID 86 (sense GACCAACAUGGAGUCGUGUACAUUA; antisense UAAUGUACACGACUCCAUGUUGGUC; RNA, backbone not given here)” showed an EC50 [1] of 1.8 nM, an EC50 [2] of 0.35 nM and an EC50 [3] of 10.9 nM.
In the case of “VEGFR2-21-h5#: siRNA targeting VEGFR2 mRNA; sense SEQ ID 64, antisense SEQ ID 107 (sense GCAUCAGCAUAAGAAACUUTT; antisense AAGUUUCUUAUGCUGAUGCTT; sugars from the 5' end r19 d2, backbone not given here)”, the EC50 [1] is reported as 0.4 nM, the “knockdown effect … compared with unmodified” value is reported as “better than that of unmodified” and the EC50 [2] is reported as 0.51 nM. For the same substance, the EC50 [3] was 25.5 nM.
“VEGFR2-21-hm18# mod: Modified (2′F, 2′OME, phosphorylation) siRNA targeting VEGFR2; sense SEQ ID 136, antisense SEQ ID 144 (sense mGmGmAmAmAmAfAfAfCmAmAmAmAmCmUmGmUmAmAdTdT; antisense {P}-mUfUmAmCmAmGmUmUmUmUmGmUmUfUmUmUmUmCmCdTdT)” gave an EC50 [1] of 0.02 nM, an EC50 [2] of 0.06 nM and an EC50 [3] of 1.57 nM.
With “VEGFR2-21-hm17#: siRNA targeting VEGFR2 mRNA; sense SEQ ID 76, antisense SEQ ID 119 (sense GGACUGGCUUUGGCCCAAUTT; antisense AUUGGGCCAAAGCCAGUCCTT; sugars from the 5' end r19 d2, backbone not given here)” the EC50 [1] was 1.04 nM, the “knockdown effect … compared with unmodified” value was “better than that of unmodified” and the EC50 [2] was 2.09 nM. The EC50 [3] was 16.6 nM.
In the case of “VEGFR2-21-hm18#: siRNA targeting VEGFR2 mRNA; sense SEQ ID 77, antisense SEQ ID 120 (sense GGAAAAAACAAAACUGUAATT; antisense UUACAGUUUUGUUUUUUCCTT; sugars from the 5' end r19 d2, backbone not given here)”, the EC50 [1] is reported as 3.26 nM, the “knockdown effect … compared with unmodified” value is reported as “better than that of unmodified” and the EC50 [2] is reported as 3.81 nM. It also gave an EC50 [3] of 3.17 nM.
“VEGFR2-25-h 4#mod: Modified (2′F, 2′OME, phosphorylation) siRNA targeting VEGFR2; sense SEQ ID 134, antisense SEQ ID 142 (sense mCmCmCmUmUmGmAmGmUmCmCmAfAfUfCmAmCmAmCmAmAmUmUmAmA; antisense {P}-mUfUmAmAmUmUmGmUmGmUmGmAmUfUmGmGmAmCmUmCmAmAmGmGmG)” showed an EC50 [1] of 0.21 nM, an EC50 [2] of 0.35 nM and an EC50 [3] of 34.6 nM.
In the case of “VEGFR2-25-h3#mod: Modified (2′F, 2′OME, phosphorylation) siRNA targeting VEGFR2; sense SEQ ID 133, antisense SEQ ID 141 (sense mGmAmCmCmAmAmCmAmUmGmGmAfGfUfCmGmUmGmUmAmCmAmUmUmA; antisense {P}-mUfAmAmUmGmUmAmCmAmCmGmAmCfUmCmCmAmUmGmUmUmGmGmUmC)”, the EC50 [1] is reported as 1.65 nM, the EC50 [2] is reported as 1.76 nM and the EC50 [3] is reported as 1090 nM.
With “VEGFR2-21-h2#: siRNA targeting VEGFR2 mRNA; sense SEQ ID 61, antisense SEQ ID 104 (sense GGUCCAUUUCAAAUCUCAATT; antisense UUGAGAUUUGAAAUGGACCTT; sugars from the 5' end r19 d2, backbone not given here)” the EC50 [1] was 0.72 nM, the “knockdown effect … compared with unmodified” value was “better than that of unmodified” and the EC50 [2] was 0.36 nM. The EC50 [3] was 10.7 nM.
Substance “VEGFR2-25-h4#: siRNA targeting VEGFR2 mRNA; sense SEQ ID 44, antisense SEQ ID 87 (sense CCCUUGAGUCCAAUCACACAAUUAA; antisense UUAAUUGUGUGAUUGGACUCAAGGG; RNA, backbone not given here)” has an EC50 [1] of 0.38 nM, an EC50 [2] of 0.13 nM and an EC50 [3] of 5.39 nM.
